Test results taken from patent publication US20240018120A1, “MAGL INHIBITORS” (H. LUNDBECK A/S, priority 2020, published 2024).

Assays:
[1] = test system: maximal electroshock seizure threshold (MEST) model; experiment: Maximal electroshock seizure threshold (MEST) model in the rat; assay type: in vivo; settings: 10 mg/kg p.o., 240 min pre-treatment
Description: In the MEST model, a low-intensity electrical current of high frequency and short duration is applied to induce tonic convulsions.
Animals were randomly assigned to vehicle, compound treatment or Lamotrigine dose groups. Animals were dosed at 5 mL/kg according to treatment groups (n=12 or 16/group), with either vehicle (0.5% MC) p.o. for Example 6, vehicle (10% HP-b-CD) for Example 8, test compound at 10 mg/kg p.o. 240 min pre-treatment time, or Lamotrigine p.o. 360 min pre-treatment time. Rats were individually assessed for production of a tonic hind limb extensor seizure following a single corneally delivered electroshock of 0.3 second duration, using an ‘up and down method’ of shock titration (Kimball A W et al., 1957). Thus, the first rat within a treatment group was given a shock at the expected or estimated CC50 current (current producing tonic hind limb extensor seizures in 50% of animals). […] This procedure was continued for all rats within a treatment group. Induction of seizure was measured as an all-or-nothing effect scored as either present (+) or absent (0) for each animal. […]
Significant differences between drug-treated animals and controls were assessed according to Litchfield and Wilcoxon (1949) or One-Way ANOVA followed by Dunnett's multiple comparisons test.

[2] = test system: kainic acid seizure model; experiment: Kainic acid seizure model in the rat; assay type: in vivo
Description: Kainic acid is an analog of the excitatory neurotransmitter, glutamate and acts as an agonist of kainic acid receptors. After systemic injection, kainic acid induces prolonged excitatory responses with many of the features of human temporal lobe epilepsy.
Rats, placed in individual Plexiglas cages (33×21×18 cm), are injected with kainic acid (20 mg/kg i.p.). The occurrences of the following symptoms are noted over a 120-minute period 30 minutes after kainic acid injection: forelimb clonus, rearings and rearings with falling, clonic convulsions, tonic convulsions and death. The presence of each symptom and the latencies to the first appearance of the symptoms are measured. The number of forelimb clonus is counted.
12 rats are studied per group. The test is performed partially blind.
The test substances will be evaluated at multiple doses, administered p.o. 240 minutes before the test, and compared with the corresponding vehicle control group (Group 2, administered with 10% HP-b-CD in distilled water, p.o. 240 minutes before the test).
Example 6 was evaluated at 0.3, 1, 3 and 10 mg/kg, and Example 8 was evaluated at 1, 3 and 10 mg/kg, administered p.o. 4 hours before the test, and compared with a vehicle control group (administered with 10% HP-b-CD, p.o. 4 hours before the test).
Diazepam (16 mg/kg) used as reference substance, was administered p.o. 60 minutes before the test (0.5% HP-b-CD) and was compared with vehicle controls.
Quantitative data (latencies) with the test substance was analyzed by comparing treated groups with vehicle control using Kruskal-Wallis test followed by Mann-Whitney U test. Quantitative data with the reference substance will be analysed using Mann-Whitney U test.
Quantal data (frequencies) were analyzed by comparing treated groups with vehicle control using Fisher's Exact Probability tests.

## O=C(Nc1cccnn1)[C@H]1CC12CCN(C(=O)OC(C(F)(F)F)C(F)(F)F)CC2 [Example 6, 1,1,1,3,3,3-Hexafluoropropan-2-yl (S)-1-(pyridazin-3-ylcarbamoyl)-6-azaspiro[2.5]octane-6-carboxylate]
[1]
  anticonvulsant activity in the MEST (seizure threshold CC50): anticonvulsant activity
[2]; dose-range 0.3-10 mg/kg p.o., 4 hours before the test, rat
  anticonvulsant effects in the kainic acid seizure test: clear anticonvulsant effects
[2]; middle-high doses, reference Diazepam 16 mg/kg p.o.
  magnitude of the effects in the kainic acid seizure test compared with reference: close to those observed with the reference substance, Diazepam
